Patent publication US9353115B2, “Immune system modulators” (JANUS BIOTHERAPEUTICS, INC., priority 2011, dated 2016)

Tests used:
human TLR9 (hTLR9) = human TLR9 (hTLR9) (Homo sapiens (Human), UniProt Q9NR96); assay: TLR9 antagonist assay in HEK-Blue-hTLR9 cells (SEAP reporter, ODN 2006 agonist); assay type: cell-based; details: inhibition of hTLR9 dependent SEAP production, hTLR9 agonist such as ODN 2006, 1 μM, read-out: hTLR9 antagonism IC50
Source text: HEK-Blue™-hTLR9 cells were obtained from InvivoGen Inc. and used to determine test compound antagonism of human TLR9 (hTLR9) driven responses. HEK-Blue™-hTLR9 cells are designed for studying the stimulation of human TLR9 by monitoring the activation of NF-kB. As described by the manufacturer, “HEK-Blue™-hTLR9 cells were obtained by co-transfection of the hTLR9 gene and an optimized secreted embryonic alkaline phosphatase (SEAP) reporter gene into HEK293 cells. The SEAP reporter gene is placed under the control of the IFN-b minimal promoter fused to five NF-kB and AP-1 binding sites. Stimulation with a TLR9 ligand activates NF-kB and AP-1 which induces the production of SEAP. Levels of SEAP can be easily determined with QUANTI-Blue™ a detection medium that turns purple/blue in the presence of alkaline phosphatase”. […]
Invivogen's QUANTI-Blue™ was prepared following the manufacturer's instructions. […] SEAP levels were determined using a spectrophotometer at 620 nm.
The concentration dependent inhibition of hTLR9 dependent SEAP production was expressed as the concentration of compound which produced half the maximal level of SEAP induced by the hTLR agonist alone. Percent activity was calculated for each observation using the formula: % activity=((observed O.D.−background O.D.)/(agonist only O.D.−background O.D.))*100. […]

TLR9 = TLR9 (Mus musculus (Mouse), UniProt Q9EQU3); assay: In vivo TLR knockdown: serum IL-12 after CpG ODN 1668 TLR9 agonist injection in C57Bl/6J mice; details: male C57Bl/6J mice; single intraperitoneal dose; CpG ODN 1668 i.p. 1 hr later; serum IL-12 ELISA 3 hours post agonist
Chain of TLR9 (Q9EQU3 26-1032): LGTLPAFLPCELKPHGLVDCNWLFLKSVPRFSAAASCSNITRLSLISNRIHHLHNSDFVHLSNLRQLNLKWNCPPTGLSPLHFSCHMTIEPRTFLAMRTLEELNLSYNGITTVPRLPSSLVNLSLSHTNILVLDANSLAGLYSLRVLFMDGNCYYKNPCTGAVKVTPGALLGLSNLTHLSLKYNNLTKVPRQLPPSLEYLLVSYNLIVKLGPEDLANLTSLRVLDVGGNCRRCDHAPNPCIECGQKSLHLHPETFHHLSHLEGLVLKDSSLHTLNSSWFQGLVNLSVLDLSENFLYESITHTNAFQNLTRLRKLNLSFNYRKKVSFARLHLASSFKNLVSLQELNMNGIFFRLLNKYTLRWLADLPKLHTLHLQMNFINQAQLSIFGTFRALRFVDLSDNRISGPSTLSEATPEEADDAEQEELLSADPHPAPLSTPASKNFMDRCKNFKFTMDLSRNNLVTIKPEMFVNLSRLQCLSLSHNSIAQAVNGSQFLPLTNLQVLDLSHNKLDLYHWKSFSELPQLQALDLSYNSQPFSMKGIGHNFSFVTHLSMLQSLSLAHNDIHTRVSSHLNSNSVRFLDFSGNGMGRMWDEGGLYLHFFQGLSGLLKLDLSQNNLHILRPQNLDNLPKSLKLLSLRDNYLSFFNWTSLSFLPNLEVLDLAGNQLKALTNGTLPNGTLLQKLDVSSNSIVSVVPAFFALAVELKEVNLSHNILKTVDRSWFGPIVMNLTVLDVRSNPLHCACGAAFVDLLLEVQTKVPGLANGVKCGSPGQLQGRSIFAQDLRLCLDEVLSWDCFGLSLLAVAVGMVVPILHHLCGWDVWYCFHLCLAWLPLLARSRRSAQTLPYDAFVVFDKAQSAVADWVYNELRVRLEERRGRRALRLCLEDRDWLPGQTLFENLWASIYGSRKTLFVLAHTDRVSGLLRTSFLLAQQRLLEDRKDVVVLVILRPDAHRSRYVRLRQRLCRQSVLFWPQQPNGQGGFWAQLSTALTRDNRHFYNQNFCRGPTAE
Experimental: The Effects of Test Articles on Toll-Like Receptor (TLR) Knockdown Following a Single Intraperitoneal Dose to Male C57Bl/6 Mice.
Toll-Like Receptor (TLR) knockdown effect of test articles was evaluated in a C57Bl/6J mouse. Primary end points included a terminal blood collection for analysis of cytokine production in response to CpG-DNA TLR9 agonist injection. Male C57Bl/6J mice, at ˜8 weeks of age from Jackson Laboratories were used. Test groups were 3 mice per treatment group and the groups were administered test article in a series of descending doses within the range of 400 μg to 10 μg. Test article treatment was dosed at T=0 hr by intraperitoneal injection. Agonist (CpG ODN 1668) treatment was dosed one hour later, T=1 hr by intraperitoneal injection. Necropsy was performed 3 hours post agonist treatment, T=4 hr. Blood samples were collected into serum separator tubes, allowed to clot at room temperature for at least 20 minutes, centrifuged at ambient temperature at 3000 g for 10 minutes, and the serum was extracted. ELISA was performed to determine murine IL-12 levels following manufacture's protocol (BioLegend Inc.). Serum IL-12 levels were calculated and plotted versus administered dose of antagonist and inhibitory dose at 50% (ID50) was determined.

Chain of human TLR9 (hTLR9) (Q9NR96 26-1032): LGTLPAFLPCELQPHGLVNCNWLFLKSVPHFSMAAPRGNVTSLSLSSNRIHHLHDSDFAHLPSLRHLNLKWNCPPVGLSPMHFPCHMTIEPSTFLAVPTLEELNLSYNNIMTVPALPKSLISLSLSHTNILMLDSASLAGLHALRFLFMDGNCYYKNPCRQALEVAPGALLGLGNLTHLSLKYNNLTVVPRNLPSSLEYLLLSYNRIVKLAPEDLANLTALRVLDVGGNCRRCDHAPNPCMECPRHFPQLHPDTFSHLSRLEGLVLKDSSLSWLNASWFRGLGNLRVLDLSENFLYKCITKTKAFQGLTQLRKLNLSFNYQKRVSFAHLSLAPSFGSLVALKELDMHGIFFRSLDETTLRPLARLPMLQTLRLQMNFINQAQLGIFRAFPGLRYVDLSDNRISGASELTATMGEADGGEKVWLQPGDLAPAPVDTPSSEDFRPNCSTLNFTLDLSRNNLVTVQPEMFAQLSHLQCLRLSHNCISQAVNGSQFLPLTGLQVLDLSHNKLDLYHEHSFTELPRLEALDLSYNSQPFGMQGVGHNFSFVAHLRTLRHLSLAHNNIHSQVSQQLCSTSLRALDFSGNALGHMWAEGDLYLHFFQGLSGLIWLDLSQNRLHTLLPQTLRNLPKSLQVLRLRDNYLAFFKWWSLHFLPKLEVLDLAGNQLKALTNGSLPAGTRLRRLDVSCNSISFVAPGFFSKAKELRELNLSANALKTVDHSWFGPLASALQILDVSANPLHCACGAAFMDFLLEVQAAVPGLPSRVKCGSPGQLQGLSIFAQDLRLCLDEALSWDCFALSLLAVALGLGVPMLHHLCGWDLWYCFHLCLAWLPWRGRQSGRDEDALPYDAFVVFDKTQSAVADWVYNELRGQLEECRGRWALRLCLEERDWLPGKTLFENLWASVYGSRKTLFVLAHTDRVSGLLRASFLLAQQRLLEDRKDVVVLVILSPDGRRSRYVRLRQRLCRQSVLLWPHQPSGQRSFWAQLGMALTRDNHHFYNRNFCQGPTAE

SMILES	IC50 (human TLR9 (hTLR9)) [nM]	In vivo TLR antagonism ID50 (inhibitory dose at 50% of serum IL-12) (TLR9) [µg]
CN1CCN(CCNc2nc(-c3ccccc3)nc3c2nc(O)n3CCN2CCOCC2)CC1 [Example 57]	271	348
CN1CCN(CCn2c(O)nc3c(NCCN4CCOCC4)nc(-c4ccccc4)nc32)CC1 [Example 63]	497	
